This experiment has as its system Escherichia coli 31. Nature of the experiment: Minimal inhibitory concentration (MIC), in vitro antibacterial activity by two-fold agar-plate dilution method. It counts as cell-based. As to conditions: heart infusion agar, 37° C, 20 hours. As for the experimental part:
In vitro antibacterial activity was determined by the two-fold agar-plate dilution method as described below.
One loopful of an overnight culture of each test strain in trypticase-soy broth (10^8 viable cells per ml) was streaked on heart infusion agar (HI-agar) containing graded concentrations of representative test compounds, and the minimal inhibitory concentration (MIC) was expressed in terms of μg/ml after incubation at 37° C for 20 hours.

In brackets after ≈: the same amount, converted by molar mass.

For orientation: MIC means the lowest concentration found to suppress growth.

The molecule `CO/N=C(\C(=O)NC1C(=O)N2C(C(=O)[O-])=C(S/C=C\c3ccc[n+](C)c3)CSC12)c1csc(N)n1` (stereo not drawn) [Test compound (1), 7-[2-(2-Aminothiazol-4-yl)-2-methoxyiminoacetamido]-3-[(Z)-2-(1-methyl-3-pyridinio)-vinylthio]-3-cephem-4-carboxylate (syn isomer)] returned an MIC of less than 0.025 µg/mL.
Molecule `CO/N=C(\C(=O)NC1C(=O)N2C(C(=O)O)=C(S/C=C\c3cccnc3)CSC12)c1csc(N)n1` (stereo not drawn) [Test compound (2), 7-[2-(2-Aminothiazol-4-yl)-2-methoxyimino-acetamido]-3-[(Z)-2-(3-pyridyl)vinylthio]-3-cephem-4-carboxylic acid (syn isomer)] came in with an MIC of less than 0.025 µg/mL.
The value for `C=CCO/N=C(\C(=O)NC1C(=O)N2C(C(=O)O)=C(S/C=C\c3cccnc3)CSC12)c1nsc(N)n1` (stereo not drawn) [Test compound (3), 7-[2-Allyloxyimino-2-(5-amino-1,2,4-thiadiazol-3-yl)acetamido]-3-[(Z)-2-(3-pyridyl)vinylthio]-3-cephem-4-carboxylic acid (syn isomer)] was 0.05 µg/mL (≈ 0.0916 µM); that for `CCO/N=C(\C(=O)NC1C(=O)N2C(C(=O)[O-])=C(S/C=C\c3ccc[n+](C)c3)CSC12)c1csc(N)n1` (stereo not drawn) [Test compound (4), 7-[2-(2-Aminothiazol-4-yl)-2-ethoxyiminoacetamido]3-[(Z)-2-(1-methyl-3-piridinio)vinylthio]-3-cephem-4-carboxylate (syn isomer)] was less than 0.025 µg/mL.

(Values after US4871730A, “Cephem compounds” (Fujisawa Pharmaceutical Co., Ltd., priority 1983, dated 1989).)
